Experimental data published in patent US9480649B2, “Lipid microparticle growth factor formulations” (Biopharm Gesellschaft zur biotechnologischen Entwicklung …, priority 2006, dated 2016).
In brackets after ≈: the same amount, converted by molar mass. Like-named read-outs stand apart in the source and are kept apart here. Blank lines part the entries; values can stand above or below the molecule they belong to. Peptide text beside a SMILES is read from it.

Tests used:
[1] = for concentration prepared and stabilized using the lipid microparticle formulation: pH 7
Description: The tube was vortexed briefly. • c. The sample was placed in an ice-ethanol bath to maintain a temperature of approximately 4° C. • d. The tip of a probe sonicator was placed just above the bottom of the microcentrifuge tube. It was confirmed that the sonicator tip was not touching the sides or the bottom of the tube. • e. The sample was sonicated for 2 h at setting 10 on a 25% duty cycle with a period of 20 sec, producing an average power output of 22 watts. • f. The ice-ethanol bath was changed every 12 min to maintain temperature. • g. […] The solution was centrifuged for 4 min at 12,000 rpm to remove any metal particulates left by the probe tip. • i. 1 ml of the LMP was transferred to a clean 1.5 microcentrifuge tube.
Polyphenols are a group of chemical substances found in plants, characterized by the presence of more than one phenol group per molecule. The term comprises tannins, lignins and flavonoids. […] Myricetin (C15H10O8, MW 318.24) is a naturally occurring flavonoid found in many food sources known to have antioxidant and anti-inflammatory properties. […] Despite its therapeutic potential, myricetin has very limited water solubility. […] In an effort to increase the solubility of myricetin to enhance its therapeutic potential, myricetin was incorporated into lipid microparticles as follows: • j. 1 mg myricetin was added to the tube and vortexed to combine. […] The myricetin mixture was again placed over the ice-ethanol bath and fitted with the probe sonicator. • l. The mixture was sonicated on the same settings for 2.5 h, again replacing the ice-ethanol bath every 12-15 min. • m. […] The solution was centrifuged again for 5 min at 12,000 rpm to remove any metal particulates. • o. The solution was then titrated to pH 7 with 1 M NaOH.
In an effort to increase solubility, Vitamin E was incorporated into lipid LMP as follows: • j. 5 uL (4.65 mg) of vitamin E was added to the tube and vortexed to combine. • k. The Vitamin E mixture was placed over the ice-ethanol bath again and fitted with the probe sonicator. • l. The mixture was sonicated on the same settings for 2.5 h, again replacing the ice-ethanol bath every 12-15 min. • m. […] The solution was centrifuged again for 4 min at 12,000 rpm to remove any metal particulates. • o. The solution was then titrated to pH 7 with 1 M NaOH.
In an effort to increase the solubility of Leu-Leu-Leu to enhance it's therapeutic potential, Leu-Leu-Leu was incorporated into lipid microparticles as follows: • j. 8 mg Leu-Leu-Leu was added to the tube and vortexed to combine. […] The Leu-Leu-Leu mixture was again placed over the ice-ethanol bath and fitted with the probe sonicator. • l. The mixture was sonicated on the same settings for 2.5 h, again replacing the ice-ethanol bath every 12-15 min. • m. […] The solution was centrifuged again for 5 min at 12,000 rpm to remove any metal particulates. • o. The solution was then titrated to pH 7 with 1 M NaOH.

Solubility in water = assay type: physicochemical; conditions: based on our own results
[2] = cited from earlier work
[3] = rat, in vivo
[4] = cited from earlier work; remark: listed apart in the source
[5] = Solubility of GDF-5 in organic solvents (RP-HPLC of supernatant after centrifugation); assay type: physicochemical; conditions: dichlormethane, acetonitrile and DMSO solutions, centrifuged
Excerpt: The inventors of the present application have proceeded with an extensive investigation in order to overcome the above described problems. […] Hydrophobic drugs are very often highly soluble in the volatile organic solvents. […] After adding GDF-5, dichlormethane, acetonitrile and DMSO solutions were centrifuged and the GDF-5 content of the supernatant was checked with RP-HPLC.
After adding GDF-5, solutions were centrifuged and the GDF-5 content of supernatant was checked with RP-HPLC.

[6] = test system: cultured midbrain neurons; conditions: cited from earlier work

- increase of aqueous solubility at neutral pH using the LMP formulation [1]: over three-fold
- concentration prepared and stabilized using the lipid microparticle formulation [1]: 8000 µg/mL
- solubility (Solubility in water): ~2500 µg/mL (≈ 6.99 mM)
Molecule: CC(C)C[C@H](NC(=O)[C@H](CC(C)C)NC(=O)[C@@H](N)CC(C)C)C(=O)O [Leu-Leu-Leu] (H-Leu-Leu-Leu-OH; N-terminus and C-terminus assumed)

Molecule: O=c1c(O)c(-c2cc(O)c(O)c(O)c2)oc2cc(O)cc(O)c12 [myricetin]
- increase of aqueous solubility at neutral pH using the LMP formulation [1]: 15.4 fold
- concentration prepared and stabilized using the lipid microparticle formulation ([1]; 2.5 h): 1000 µg/mL
- solubility (Solubility in water): 65 µg/mL (≈ 0.204 mM)

- increase of aqueous solubility at neutral pH using the LMP formulation [1]: increased greatly
- concentration prepared and stabilized using the lipid microparticle formulation [1]: 4650 µg/mL
Molecule: Vitamin E

Molecule: beta amyloid 1-42
- solubility in aqueous solution ([2]; pH 3): very soluble
- solubility in aqueous solution ([2]; pH 7): essentially insoluble
- solubility in aqueous solution ([2]; physiological pH, e.g., pH 7.4): very low solubility

Molecule: growth and differentiation factor-5 [GDF-5]
- blood exposure, intravenous relative to intranasal [3]: twice as great
- midbrain concentration, intravenous relative to intranasal [3]: less than half
- pH threshold for solubility ([4]; aqueous solutions of GDF-5): 4.3
- pH above which the protein starts precipitating ([4]; aqueous solutions, profile shown in EP 1 462 126): above 4.25
- retrieval percentage of GDF-5 in supernatant [5]: below 15%
- concentration at which neuroprotective effects have been demonstrated [6]: 1 nM
